One experiment addresses PKA (Homo sapiens, UniProt P17612). Nature of the experiment: kinase inhibition assay panel. Type of experiment: biochemical. The protocol:
(§1) Base Reaction buffer; 20 mM Hepes (pH 7.5), 10 mM MgCl2, 1 mM EGTA, 0.02% Brij35, 0.02 mg/ml BSA, 0.1 mM Na3VO4, 2 mM DTT, 1% DMSO
(§2) It should be noted that required cofactors are added individually to each kinase reaction.
(§3) • 1. Prepare indicated substrate in freshly prepared Base Reaction Buffer as described above • 2. Deliver any required cofactors to the substrate solution • 3. Deliver indicated kinase into the substrate solution and gently mix • 4. Deliver compounds in DMSO into the kinase reaction mixture • 5. Deliver ^33P-ATP (specific activity 0.01 μCi/μl final) into the reaction mixture to initiate the reaction • 6. Incubate kinase reaction for 120 min. at room temperature • 7. Reactions are spotted onto P81 ion exchange paper (Whatman #3698-915) • 8. Wash filters extensively in 0.75% Phosphoric acid Kinase Information: • CK1δ—Genbank Accession # NP_620693 • Recombinant human full-length construct. GST-tagged, expressed in insect cells. • Final concentration in assay=4 nM • Substrate: CK1tide • Substrate sequence: [KRRRAL[pS]VASLPGL] • Final substrate concentration in assay=20 μM • It should be noted that no additional cofactors are added to the reaction mixture.

The target in a further experiment is ALK4/ACVR1B (Homo sapiens, UniProt P36896). Nature of the experiment: kinase inhibition assay panel. Type of experiment: biochemical. As for the experimental part:
as §1, §2, §3

The next experiment concerns the target EPHA2 (Homo sapiens, UniProt P29317). Put plainly: kinase inhibition assay panel. It counts as biochemical. The protocol:
as §1, §2, §3

A further experiment has as its target RIPK2 (Homo sapiens, UniProt O43353). Put plainly: kinase inhibition assay panel. Type of experiment: biochemical. As for the experimental part:
as §1, §2, §3

A further experiment has as its target YES/YES1 (Homo sapiens, UniProt P07947). Put plainly: kinase inhibition assay panel. It counts as biochemical. As for the experimental part:
as §1, §2, §3

The test system of experiment [1] is Tau phosphorylated at Threonine 231 in SH-SY5Y-TMHT cells. Nature of the experiment: Western Blot of Tau phosphorylated at Threonine 231. The conditions noted are these: for detectable level of pT231 in Tau protein: 10 μM, Western Blot; for phosphorylation of Thr 231 within Tau proteins: FIG. 5. Type of experiment: cell-based, human. As for the experimental part:
SH-SY5Y-TMHT cells are kept in culture medium (DMEM medium, 10% FCS, 1% NEAA, 1% L-Glutamine, 100 μg/ml Gentamycin, 300 μg/ml Geneticin G-418) for 2 days until 80-90% confluency. Cells are then differentiated in culture medium supplemented with 10 μM retinoic acid (RA) for 7 days changing medium every 2 to 3 days. Differentiated cells are seeded onto 6-well plates and 96-well plates at a cell density of 1.25×10^6 and 8×10^5 cells per well, respectively. On day 8 post-differentiation, the test compounds, reference compounds and vehicle control were added to the culture medium. After 6 h of compound exposure one plate of cells is subjected to a MTT assay to evaluate the effect of test and reference items on cell viability. Remaining wells are washed once with cold PBS and harvested in 300 μl RIPA-Buffer [50 mM Tris pH 7.4, 1% Nonident P40, 0.25% Na-deoxy-cholate, 150 mM NaCl, 1 mM EDTA, 1 μM NaF, 1 μM Na-ortho-vanadate, 80 mM Glycerophosphate, supplemented with freshly added protease (Calbiochem) and phosphatase (Sigma) inhibitor cocktail]. The cell suspension is transferred into a 1.5 ml tube and additionally lysed by sonication on ice. An aliquot of 20 μl is taken for the determination of the protein concentration (BCA assay). Subsequently, the lysates are snap frozen and stored at −80° C. until shipment.
Lysates of treated cells were prepared in Laemmli buffer and 10 μg loaded into each lane of a 10% Nu-PAGE gel (Invitrogen, UK). Samples were run until the coomassie blue dye fromt was within 1 cm of the bottom of the gel. The separated proteins were transferred onto nitrocellulose and blots developed using antibodies specific for total tau (Polyclonal Rabbit Anti-Human Tau, Dako, UK (cat # A0024)) and phopho-Threonine 231 (Tau (Phospho-Thr231) Antibody, Signalway Antibody, USA (cat # 11110)) respectively. In each case the bound antibody was detected using ECL Rabbit IgG, HRP-Linked (from donkey) (GE Healthcare, UK (cat # NA934))

The next experiment has as its target ALK5/TGFBR1 (Homo sapiens, UniProt P36897). Nature of the experiment: kinase inhibition assay panel. It counts as biochemical.
A further experiment has as its target T1, CK1δ (Homo sapiens, UniProt P48730).
T1 construct: Recombinant human full-length construct; GST; host or cells: insect cells
T1 sequence (P48730 1-409 isoform P48730-2): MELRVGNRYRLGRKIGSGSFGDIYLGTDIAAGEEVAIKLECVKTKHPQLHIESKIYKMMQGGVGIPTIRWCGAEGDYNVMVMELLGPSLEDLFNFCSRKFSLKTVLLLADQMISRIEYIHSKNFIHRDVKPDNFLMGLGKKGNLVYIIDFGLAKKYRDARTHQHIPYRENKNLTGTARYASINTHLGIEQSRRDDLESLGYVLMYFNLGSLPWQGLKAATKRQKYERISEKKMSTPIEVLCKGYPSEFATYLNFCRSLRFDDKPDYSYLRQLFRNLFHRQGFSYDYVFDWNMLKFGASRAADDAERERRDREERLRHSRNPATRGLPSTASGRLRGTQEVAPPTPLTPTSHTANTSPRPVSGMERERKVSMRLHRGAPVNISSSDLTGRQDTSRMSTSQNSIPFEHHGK
Nature of the experiment: CK1δ inhibition assay (33P-ATP, CK1tide substrate). Type of experiment: biochemical. The conditions noted are these: range of kinase inhibition assays. As for the experimental part:
The compounds of the invention may be tested for inhibition of casein kinase 1 delta (CK1δ) in accordance with the assay protocols described in US 2010/0152157, EP 1,636,375 or Hanger et al (2007) J. Biol. Chem. 282, 23645-23654. In particular, the assay was conducted in accordance with the following protocol:
as §1, §2, §3

In another experiment the target is EGFR (Homo sapiens, UniProt P00533). Put plainly: kinase inhibition assay panel. Type of experiment: biochemical.
Sequence of EGFR (P00533 25-1210, species assumed): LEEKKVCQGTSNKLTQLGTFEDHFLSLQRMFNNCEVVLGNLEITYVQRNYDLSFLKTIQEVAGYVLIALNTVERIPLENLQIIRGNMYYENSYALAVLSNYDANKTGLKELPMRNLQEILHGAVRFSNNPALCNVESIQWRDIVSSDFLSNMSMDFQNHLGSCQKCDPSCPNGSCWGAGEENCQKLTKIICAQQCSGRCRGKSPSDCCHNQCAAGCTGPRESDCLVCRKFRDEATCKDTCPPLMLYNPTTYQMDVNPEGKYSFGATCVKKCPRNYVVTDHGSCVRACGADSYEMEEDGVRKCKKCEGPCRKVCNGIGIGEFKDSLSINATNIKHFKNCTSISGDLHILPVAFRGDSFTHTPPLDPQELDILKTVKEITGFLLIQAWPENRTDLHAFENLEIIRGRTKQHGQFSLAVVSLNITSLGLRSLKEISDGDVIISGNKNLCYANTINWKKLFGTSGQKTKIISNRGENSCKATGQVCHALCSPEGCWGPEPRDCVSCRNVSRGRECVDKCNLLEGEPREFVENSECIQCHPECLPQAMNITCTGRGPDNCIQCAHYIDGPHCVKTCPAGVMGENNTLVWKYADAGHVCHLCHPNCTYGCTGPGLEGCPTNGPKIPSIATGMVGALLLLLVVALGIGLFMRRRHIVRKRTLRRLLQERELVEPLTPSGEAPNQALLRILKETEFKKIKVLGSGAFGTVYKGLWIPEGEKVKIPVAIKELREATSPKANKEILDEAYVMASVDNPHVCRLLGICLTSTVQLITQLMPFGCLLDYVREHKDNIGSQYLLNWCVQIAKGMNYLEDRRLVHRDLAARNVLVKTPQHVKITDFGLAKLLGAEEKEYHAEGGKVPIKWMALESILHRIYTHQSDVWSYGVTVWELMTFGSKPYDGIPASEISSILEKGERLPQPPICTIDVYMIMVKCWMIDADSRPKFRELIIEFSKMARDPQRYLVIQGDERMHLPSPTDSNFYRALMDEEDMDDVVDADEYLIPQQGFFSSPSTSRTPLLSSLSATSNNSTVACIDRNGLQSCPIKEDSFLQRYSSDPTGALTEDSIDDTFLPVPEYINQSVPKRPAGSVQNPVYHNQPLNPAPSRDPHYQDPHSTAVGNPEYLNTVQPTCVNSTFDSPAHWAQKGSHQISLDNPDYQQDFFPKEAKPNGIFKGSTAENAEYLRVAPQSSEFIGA
For the next experiment, the target named is CK1a1 (Homo sapiens, UniProt P48729). Nature of the experiment: kinase inhibition assay panel. Type of experiment: biochemical.
Sequence of CK1a1 (P48729 whole entry): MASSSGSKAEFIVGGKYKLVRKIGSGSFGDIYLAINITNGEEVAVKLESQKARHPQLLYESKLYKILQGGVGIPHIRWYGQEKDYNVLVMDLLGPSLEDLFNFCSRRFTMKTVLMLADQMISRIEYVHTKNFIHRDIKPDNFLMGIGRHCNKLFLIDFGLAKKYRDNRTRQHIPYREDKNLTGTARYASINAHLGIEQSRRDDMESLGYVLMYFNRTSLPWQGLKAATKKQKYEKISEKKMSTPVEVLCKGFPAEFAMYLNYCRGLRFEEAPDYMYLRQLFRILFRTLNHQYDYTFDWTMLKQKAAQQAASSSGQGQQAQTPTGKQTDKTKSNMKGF
The target of a further experiment is CK1g2 (Homo sapiens, UniProt P78368). Put plainly: kinase inhibition assay panel. It counts as biochemical.
Sequence of CK1g2 (P78368 whole entry, species assumed): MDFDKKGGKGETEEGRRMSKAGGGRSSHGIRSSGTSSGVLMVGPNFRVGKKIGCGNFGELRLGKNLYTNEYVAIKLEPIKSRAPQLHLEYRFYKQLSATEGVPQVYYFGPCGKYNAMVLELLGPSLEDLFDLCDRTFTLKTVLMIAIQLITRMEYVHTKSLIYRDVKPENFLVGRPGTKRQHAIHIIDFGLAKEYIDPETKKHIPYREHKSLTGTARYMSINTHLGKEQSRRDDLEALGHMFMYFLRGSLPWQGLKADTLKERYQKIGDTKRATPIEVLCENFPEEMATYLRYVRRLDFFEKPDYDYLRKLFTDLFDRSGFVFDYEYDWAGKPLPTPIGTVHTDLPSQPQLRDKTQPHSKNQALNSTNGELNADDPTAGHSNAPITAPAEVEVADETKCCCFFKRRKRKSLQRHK

Each structure is given as a SMILES string.

Sequence of YES/YES1 (P07947 whole entry): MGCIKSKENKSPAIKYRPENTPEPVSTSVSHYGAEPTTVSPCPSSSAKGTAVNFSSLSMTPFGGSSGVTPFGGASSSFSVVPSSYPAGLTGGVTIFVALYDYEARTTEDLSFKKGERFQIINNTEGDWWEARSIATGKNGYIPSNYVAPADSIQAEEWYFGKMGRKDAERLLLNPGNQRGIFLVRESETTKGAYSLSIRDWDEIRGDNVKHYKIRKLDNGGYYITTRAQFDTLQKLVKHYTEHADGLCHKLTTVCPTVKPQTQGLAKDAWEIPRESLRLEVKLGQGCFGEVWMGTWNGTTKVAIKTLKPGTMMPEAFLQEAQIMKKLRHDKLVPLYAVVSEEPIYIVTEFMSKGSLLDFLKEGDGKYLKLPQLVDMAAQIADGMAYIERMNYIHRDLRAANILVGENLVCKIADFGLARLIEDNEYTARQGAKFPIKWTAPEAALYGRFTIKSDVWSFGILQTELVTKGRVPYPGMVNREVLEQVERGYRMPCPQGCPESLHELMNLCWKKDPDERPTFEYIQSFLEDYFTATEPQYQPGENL
Sequence of ALK4/ACVR1B (P36896 24-505): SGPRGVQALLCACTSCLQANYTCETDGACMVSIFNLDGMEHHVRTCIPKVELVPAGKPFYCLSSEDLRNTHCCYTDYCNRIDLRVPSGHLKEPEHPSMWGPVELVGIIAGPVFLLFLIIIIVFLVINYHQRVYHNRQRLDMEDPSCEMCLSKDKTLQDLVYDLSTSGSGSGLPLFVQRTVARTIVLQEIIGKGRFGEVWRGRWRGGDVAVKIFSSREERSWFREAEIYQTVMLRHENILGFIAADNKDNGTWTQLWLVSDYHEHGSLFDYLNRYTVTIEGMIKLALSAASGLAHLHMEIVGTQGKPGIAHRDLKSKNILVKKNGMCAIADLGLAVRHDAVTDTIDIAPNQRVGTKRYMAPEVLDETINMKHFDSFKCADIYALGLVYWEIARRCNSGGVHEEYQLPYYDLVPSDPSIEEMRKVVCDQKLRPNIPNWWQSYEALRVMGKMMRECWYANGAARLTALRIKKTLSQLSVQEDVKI
Sequence of EPHA2 (P29317 24-976, species assumed): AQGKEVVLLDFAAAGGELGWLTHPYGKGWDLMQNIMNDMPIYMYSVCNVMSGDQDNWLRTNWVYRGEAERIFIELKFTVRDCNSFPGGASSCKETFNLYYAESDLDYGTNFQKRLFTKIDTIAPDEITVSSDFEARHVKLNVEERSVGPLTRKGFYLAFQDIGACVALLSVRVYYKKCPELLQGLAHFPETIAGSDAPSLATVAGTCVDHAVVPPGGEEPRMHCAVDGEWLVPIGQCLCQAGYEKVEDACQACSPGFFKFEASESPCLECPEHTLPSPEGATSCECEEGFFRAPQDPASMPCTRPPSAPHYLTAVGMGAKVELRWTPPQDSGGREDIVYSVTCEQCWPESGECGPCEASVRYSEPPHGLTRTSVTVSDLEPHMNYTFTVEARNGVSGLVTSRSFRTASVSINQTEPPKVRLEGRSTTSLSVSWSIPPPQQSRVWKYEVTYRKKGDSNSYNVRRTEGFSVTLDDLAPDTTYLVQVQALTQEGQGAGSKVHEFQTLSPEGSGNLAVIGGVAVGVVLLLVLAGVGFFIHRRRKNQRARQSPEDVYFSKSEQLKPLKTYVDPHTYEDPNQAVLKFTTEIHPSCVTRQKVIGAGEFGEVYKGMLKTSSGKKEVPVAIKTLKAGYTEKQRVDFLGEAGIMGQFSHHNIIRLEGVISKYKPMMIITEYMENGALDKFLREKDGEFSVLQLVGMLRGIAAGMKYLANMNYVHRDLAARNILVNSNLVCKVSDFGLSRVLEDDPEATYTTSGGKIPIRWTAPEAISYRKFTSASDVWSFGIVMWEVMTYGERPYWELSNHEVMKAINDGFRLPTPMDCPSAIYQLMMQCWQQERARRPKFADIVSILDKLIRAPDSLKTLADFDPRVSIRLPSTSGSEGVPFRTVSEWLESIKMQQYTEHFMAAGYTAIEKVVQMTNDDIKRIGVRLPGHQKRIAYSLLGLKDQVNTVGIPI
Sequence of RIPK2 (O43353 whole entry, species assumed): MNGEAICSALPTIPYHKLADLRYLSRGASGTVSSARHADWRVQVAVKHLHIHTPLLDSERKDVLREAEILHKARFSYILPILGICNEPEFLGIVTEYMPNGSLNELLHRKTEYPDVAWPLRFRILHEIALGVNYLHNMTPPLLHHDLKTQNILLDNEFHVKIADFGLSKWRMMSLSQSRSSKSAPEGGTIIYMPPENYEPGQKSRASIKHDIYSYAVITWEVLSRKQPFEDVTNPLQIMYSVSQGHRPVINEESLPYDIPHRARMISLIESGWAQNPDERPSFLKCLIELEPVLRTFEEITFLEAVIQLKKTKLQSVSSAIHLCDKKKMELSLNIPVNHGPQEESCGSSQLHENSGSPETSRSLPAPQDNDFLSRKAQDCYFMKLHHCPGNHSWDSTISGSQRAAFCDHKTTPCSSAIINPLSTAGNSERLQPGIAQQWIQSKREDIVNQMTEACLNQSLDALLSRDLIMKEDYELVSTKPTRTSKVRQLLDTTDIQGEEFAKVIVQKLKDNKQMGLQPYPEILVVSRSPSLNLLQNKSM
Sequence of ALK5/TGFBR1 (P36897 34-503): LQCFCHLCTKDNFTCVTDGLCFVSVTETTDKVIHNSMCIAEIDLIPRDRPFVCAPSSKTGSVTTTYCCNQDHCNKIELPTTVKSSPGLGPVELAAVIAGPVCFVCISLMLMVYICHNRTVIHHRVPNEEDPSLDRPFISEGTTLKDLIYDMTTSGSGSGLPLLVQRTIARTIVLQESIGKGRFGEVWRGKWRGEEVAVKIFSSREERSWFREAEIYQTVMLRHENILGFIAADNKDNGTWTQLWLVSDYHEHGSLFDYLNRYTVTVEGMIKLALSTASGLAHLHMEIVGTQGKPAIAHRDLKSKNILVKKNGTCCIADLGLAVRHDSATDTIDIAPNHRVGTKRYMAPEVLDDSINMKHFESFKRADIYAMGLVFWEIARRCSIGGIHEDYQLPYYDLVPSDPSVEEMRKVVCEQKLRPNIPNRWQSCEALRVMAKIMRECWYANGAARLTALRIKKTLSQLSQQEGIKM

`Nc1ncc(-c2nc3ccccc3o2)c(-c2ccncc2)n1` [Compound 324, 5-(1,3-benzoxazol-2-yl)-4-(pyridin-4-yl)pyrimidin-2-amine]: the “inhibition of PKA” value against PKA is listed as “lower than 40%”. The “inhibition of ALK4/ACVR1B” value against ALK4/ACVR1B is on record as “lower than 40%”. At EPHA2, the “inhibition of EPHA2” value is on record as “lower than 40%”. Also, at RIPK2, the “inhibition of RIPK2” value was “lower than 40%”. Moreover, on YES/YES1, the “inhibition of YES/YES1” value is “lower than 40%”. Also, in experiment [1], the “detectable level of pT231 in Tau protein” value was “reduced the detectable level of pT231” and the “phosphorylation of Thr 231 within Tau proteins” value is “inhibit phosphorylation”. The “inhibition of ALK5/TGFBR1” value at ALK5/TGFBR1 is reported as “lower than 40%”. For the same compound, the “selectivity for CK1δ when compared with other kinases” value at CK1δ was “significant and selective inhibition for CK1δ”. Also, at EGFR, the “inhibition of EGFR” value is reported as “lower than 40%”. Moreover, the “inhibition of CK1a1” value against CK1a1 is “lower than 40%”.

As for `NC(=O)c1c(N)c(C(=O)c2ccc(F)cc2)n2ccccc12` [Compound 987, 2-amino-3-[(4-fluorophenyl)carbonyl]indolizine-1-carboxamide], in experiment [1], the “detectable level of pT231 in Tau protein” value was “reduced the detectable level of pT231” and the “phosphorylation of Thr 231 within Tau proteins” value is on record as “inhibit phosphorylation”. Further, on CK1g2, the “inhibition of CK1g2” value is on record as “lower than 40%”. Moreover, on CK1δ, the “selectivity for CK1δ when compared with other kinases” value was “significant and selective inhibition for CK1δ”.

The record behind these values is patent US9789111B2, “Casein kinase 1δ (CK 1δ) inhibitors” (Electrophoretics Limited, priority 2010, dated 2017).
